# In ChEMBL document CHEMBL6103578, “Design and synthesis three novel series of derivatives using natural acetylcholinesterase inhibitor-RLMS as template and in vitro, in vivo and in silico activities verification” (Eur J Med Chem, 2025):
# The source made the active and inactive calls. No cut-off for these calls is given here.
# How the values were obtained:
# Acetylcholinesterase [1] = biological target: T1, Acetylcholinesterase (Homo sapiens, UniProt P22303); test: Inhibition of AChE (unknown origin) using ATCI as substrate preincubated for 20 mins followed by substrate addition measured after 30 mins by DTNB assay
# SH-SY5Y [2] = test: Neuroprotective effect against H2O2-induced cell injury in human SH-SY5Y cells assessed as cell survival at 25 to 100 uM preincubated for 1 hr followed by H2O2 addition measured after 2 hrs by MTT assay (reference value: 57.76 %); format: functional; conditions: dose 25-100 µM, time 3 hrs
# SH-SY5Y [3] = test: Neuroprotective effect against H2O2-induced cell injury in human SH-SY5Y cells assessed as cell survival at 25 uM preincubated for 1 hr followed by H2O2 addition measured after 2 hrs by MTT assay (reference value: 57.76 %); format: functional; conditions: time 3 hrs, read-out: Activity
# Acetylcholinesterase [4] = biological target: T1, Acetylcholinesterase; test: Mixed competitive inhibition of AChE (unknown origin) at 2.5 to 15 uM by DTNB assay; conditions: dose 2.5-15 µM
# T1 sequence (P22303 whole entry): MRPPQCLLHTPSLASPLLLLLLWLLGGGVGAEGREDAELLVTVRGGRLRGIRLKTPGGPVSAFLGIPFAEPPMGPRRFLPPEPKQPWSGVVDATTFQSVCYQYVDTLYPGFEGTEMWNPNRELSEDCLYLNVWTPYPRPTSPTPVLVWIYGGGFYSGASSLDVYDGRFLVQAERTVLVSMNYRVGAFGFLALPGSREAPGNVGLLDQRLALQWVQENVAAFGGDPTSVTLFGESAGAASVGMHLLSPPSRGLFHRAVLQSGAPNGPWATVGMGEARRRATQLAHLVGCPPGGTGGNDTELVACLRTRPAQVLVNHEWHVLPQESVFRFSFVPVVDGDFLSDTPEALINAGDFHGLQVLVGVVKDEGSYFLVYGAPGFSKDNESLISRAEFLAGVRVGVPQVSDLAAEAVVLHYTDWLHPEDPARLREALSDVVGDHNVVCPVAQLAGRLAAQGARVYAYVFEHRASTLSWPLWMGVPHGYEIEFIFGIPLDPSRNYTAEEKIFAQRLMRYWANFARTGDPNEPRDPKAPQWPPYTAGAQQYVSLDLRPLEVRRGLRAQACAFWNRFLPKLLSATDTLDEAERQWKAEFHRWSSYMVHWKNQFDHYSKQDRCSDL
smiles,measurement,setting,value
C[C@@H]1CC[C@]2(C(=O)NCCc3c[nH]c4ccccc34)CC[C@]3(C)C(=CC[C@@H]4[C@@]5(C)C[C@@H](O)[C@H](O)[C@@](C)(CO)[C@@H]5CC[C@]43C)[C@@H]2[C@]1(C)O,IC50,Acetylcholinesterase [1],51.3 µM
same,Activity,SH-SY5Y [2],>57.76%
same,viability at 25 µM,SH-SY5Y [3],72.5%
Cc1c(C)c2c(c(C)c1O)CCC(C)(C(=O)O)O2 (centres undefined) [TROLOX],Activity,SH-SY5Y [2],>57.76%
same,viability at 25 µM,SH-SY5Y [3],72.6%
C[C@@H]1CC[C@]2(C(=O)O)CC[C@]3(C)C(=CC[C@@H]4[C@@]5(C)C[C@@H](OC(=O)c6ccc(Cl)cc6)[C@H](O)[C@@](C)(CO)[C@@H]5CC[C@]43C)[C@@H]2[C@]1(C)OC(=O)c1ccc(Cl)cc1,IC50,Acetylcholinesterase [1],54.3 µM
same,Activity,SH-SY5Y [2],<57.76%
C[C@@H]1CC[C@]2(C(=O)O)CC[C@]3(C)C(=CC[C@@H]4[C@@]5(C)C(C=O)=C[C@@](C)(COC(=O)c6ccc(F)cc6)[C@@H]5CC[C@]43C)[C@@H]2[C@]1(C)O,IC50,Acetylcholinesterase [1],71.9 µM
same,Activity,SH-SY5Y [2],<57.76%
C[C@@H]1CC[C@]2(C(=O)NCc3ccc(Br)cc3)CC[C@]3(C)C(=CC[C@@H]4[C@@]5(C)C[C@@H](O)[C@H](O)[C@@](C)(CO)[C@@H]5CC[C@]43C)[C@@H]2[C@]1(C)O,IC50,Acetylcholinesterase [1],84.5 µM
same,Activity,SH-SY5Y [2],>57.76%
C[C@@H]1CC[C@]2(C(=O)O)CC[C@]3(C)C(=CC[C@@H]4[C@@]5(C)C[C@@H](OC(=O)CCc6ccccc6)[C@H](O)[C@@](C)(CO)[C@@H]5CC[C@]43C)[C@@H]2[C@]1(C)O,IC50,Acetylcholinesterase [1],11.5 µM
same,Activity,SH-SY5Y [2],>57.76%
C[C@@H]1CC[C@]2(C(=O)O)CC[C@]3(C)C(=CC[C@@H]4[C@@]5(C)C[C@@H](OC(=O)c6ccc(C(F)(F)F)cc6)[C@H](OC(=O)c6ccc(C(F)(F)F)cc6)[C@@](C)(CO)[C@@H]5CC[C@]43C)[C@@H]2[C@]1(C)O,IC50,Acetylcholinesterase [1],43.4 µM
same,Activity,SH-SY5Y [2],>57.76%
COc1ccc(C(=O)O[C@]2(C)[C@H](C)CC[C@]3(C(=O)O)CC[C@]4(C)C(=CC[C@@H]5[C@@]6(C)C(C=O)=C[C@@](C)(CO)[C@@H]6CC[C@]54C)[C@@H]32)cc1,IC50,Acetylcholinesterase [1],> 100 µM
same,Activity,SH-SY5Y [2],>57.76%
C[C@@H]1CC[C@]2(C(=O)O)CC[C@]3(C)C(=CC[C@@H]4[C@@]5(C)C[C@@H](O)[C@H](O)[C@@](C)(CO)[C@@H]5CC[C@]43C)[C@@H]2[C@]1(C)O,IC50,Acetylcholinesterase [1],23.2 µM
same,Activity,SH-SY5Y [2],>57.76%
same,viability at 25 µM,SH-SY5Y [3],72.8%
C[C@@H]1CC[C@]2(C(=O)NCCc3ccc(Cl)c(Cl)c3)CC[C@]3(C)C(=CC[C@@H]4[C@@]5(C)C[C@@H](O)[C@H](O)[C@@](C)(CO)[C@@H]5CC[C@]43C)[C@@H]2[C@]1(C)O,IC50,Acetylcholinesterase [1],> 100 µM
same,Activity,SH-SY5Y [2],>57.76%
C[C@@H]1CC[C@]2(C(=O)NCc3ccccc3F)CC[C@]3(C)C(=CC[C@@H]4[C@@]5(C)C[C@@H](O)[C@H](O)[C@@](C)(CO)[C@@H]5CC[C@]43C)[C@@H]2[C@]1(C)O,IC50,Acetylcholinesterase [1],> 100 µM
same,Activity,SH-SY5Y [2],<57.76%
C[C@@H]1CC[C@]2(C(=O)NCc3ccc(Cl)cc3)CC[C@]3(C)C(=CC[C@@H]4[C@@]5(C)C[C@@H](O)[C@H](O)[C@@](C)(CO)[C@@H]5CC[C@]43C)[C@@H]2[C@]1(C)O,IC50,Acetylcholinesterase [1],64.8 µM
same,Activity,SH-SY5Y [2],>57.76%
C[C@@H]1CC[C@]2(C(=O)O)CC[C@]3(C)C(=CC[C@@H]4[C@@]5(C)C[C@@H](OC(=O)CCc6ccccc6)[C@H](OC(=O)CCc6ccccc6)[C@@](C)(CO)[C@@H]5CC[C@]43C)[C@@H]2[C@]1(C)O,inhibition,Acetylcholinesterase [4],Active
same,IC50,Acetylcholinesterase [1],5.84 µM
same,Activity,SH-SY5Y [2],>57.76%
same,viability at 25 µM,SH-SY5Y [3],72.5%
CCCCCC(=O)OC[C@]1(C)C=C(C=O)[C@@]2(C)[C@H]1CC[C@]1(C)[C@@H]2CC=C2[C@H]3[C@](C(=O)O)(CC[C@@H](C)[C@@]3(C)O)CC[C@]21C,IC50,Acetylcholinesterase [1],> 100 µM
same,Activity,SH-SY5Y [2],>57.76%
C[C@@H]1CC[C@]2(C(=O)NCc3ccc(F)cc3)CC[C@]3(C)C(=CC[C@@H]4[C@@]5(C)C[C@@H](O)[C@H](O)[C@@](C)(CO)[C@@H]5CC[C@]43C)[C@@H]2[C@]1(C)O,IC50,Acetylcholinesterase [1],> 100 µM
same,Activity,SH-SY5Y [2],<57.76%
CCCC(=O)OC[C@]1(C)C=C(C=O)[C@@]2(C)[C@H]1CC[C@]1(C)[C@@H]2CC=C2[C@H]3[C@](C(=O)O)(CC[C@@H](C)[C@@]3(C)O)CC[C@]21C,IC50,Acetylcholinesterase [1],> 100 µM
same,Activity,SH-SY5Y [2],<57.76%
C[C@@H]1CC[C@]2(C(=O)NCc3cccc(Br)c3)CC[C@]3(C)C(=CC[C@@H]4[C@@]5(C)C[C@@H](O)[C@H](O)[C@@](C)(CO)[C@@H]5CC[C@]43C)[C@@H]2[C@]1(C)O,IC50,Acetylcholinesterase [1],78 µM
same,Activity,SH-SY5Y [2],>57.76%
same,viability at 25 µM,SH-SY5Y [3],72.5%
C[C@@H]1CC[C@]2(C(=O)NCc3ccccc3Br)CC[C@]3(C)C(=CC[C@@H]4[C@@]5(C)C[C@@H](O)[C@H](O)[C@@](C)(CO)[C@@H]5CC[C@]43C)[C@@H]2[C@]1(C)O,IC50,Acetylcholinesterase [1],47.7 µM
same,Activity,SH-SY5Y [2],>57.76%
C[C@@H]1CC[C@]2(C(=O)O)CC[C@]3(C)C(=CC[C@@H]4[C@@]5(C)C[C@@H](O)[C@H](OC(=O)c6ccc(C(F)(F)F)cc6)[C@@](C)(CO)[C@@H]5CC[C@]43C)[C@@H]2[C@]1(C)O,IC50,Acetylcholinesterase [1],> 100 µM
same,Activity,SH-SY5Y [2],>57.76%
C[C@@H]1CC[C@]2(C(=O)O)CC[C@]3(C)C(=CC[C@@H]4[C@@]5(C)C(C=O)=C[C@@](C)(CO)[C@@H]5CC[C@]43C)[C@@H]2[C@]1(C)O,IC50,Acetylcholinesterase [1],> 100 µM
same,Activity,SH-SY5Y [2],>57.76%
COc1ccc(C(=O)O[C@]2(C)[C@H](C)CC[C@]3(C(=O)O)CC[C@]4(C)C(=CC[C@@H]5[C@@]6(C)C[C@@H](O)[C@H](O)[C@@](C)(CO)[C@@H]6CC[C@]54C)[C@@H]32)cc1,IC50,Acetylcholinesterase [1],63.5 µM
same,Activity,SH-SY5Y [2],>57.76%
same,viability at 25 µM,SH-SY5Y [3],72.5%
C[C@@H]1CC[C@]2(C(=O)NC3CCCCC3)CC[C@]3(C)C(=CC[C@@H]4[C@@]5(C)C[C@@H](O)[C@H](O)[C@@](C)(CO)[C@@H]5CC[C@]43C)[C@@H]2[C@]1(C)O,IC50,Acetylcholinesterase [1],80.4 µM
same,Activity,SH-SY5Y [2],>57.76%
CCCCCCNC(=O)[C@]12CC[C@@H](C)[C@@](C)(O)[C@H]1C1=CC[C@@]3(C)[C@@](C)(CC[C@H]4[C@](C)(CO)[C@@H](O)[C@H](O)C[C@@]43C)[C@]1(C)CC2,IC50,Acetylcholinesterase [1],> 100 µM
same,Activity,SH-SY5Y [2],>57.76%
C[C@@H]1CC[C@]2(C(=O)O)CC[C@]3(C)C(=CC[C@@H]4[C@@]5(C)C[C@@H](OC(=O)c6ccc(Cl)cc6)[C@H](OC(=O)c6ccc(Cl)cc6)[C@@](C)(CO)[C@@H]5CC[C@]43C)[C@@H]2[C@]1(C)O,IC50,Acetylcholinesterase [1],21.2 µM
same,Activity,SH-SY5Y [2],>57.76%
same,viability at 25 µM,SH-SY5Y [3],72.5%
C[C@@H]1CC[C@]2(C(=O)O)CC[C@]3(C)C(=CC[C@@H]4[C@@]5(C)C[C@@H](O)OCC(C)(C=O)[C@@H]5CC[C@]43C)[C@@H]2[C@]1(C)O (some centres undefined),IC50,Acetylcholinesterase [1],> 100 µM
same,Activity,SH-SY5Y [2],>57.76%
COc1ccc(C(=O)OC[C@]2(C)C=C(C=O)[C@@]3(C)[C@H]2CC[C@]2(C)[C@@H]3CC=C3[C@H]4[C@](C(=O)O)(CC[C@@H](C)[C@@]4(C)OC(=O)c4ccc(OC)cc4)CC[C@]32C)cc1,IC50,Acetylcholinesterase [1],70.2 µM
same,Activity,SH-SY5Y [2],>57.76%
C[C@@H]1CC[C@]2(C(=O)O)CC[C@]3(C)C(=CC[C@@H]4[C@@]5(C)C(C=O)=C[C@@](C)(COC(=O)c6ccc(C(F)(F)F)cc6)[C@@H]5CC[C@]43C)[C@@H]2[C@]1(C)O,IC50,Acetylcholinesterase [1],> 100 µM
same,Activity,SH-SY5Y [2],>57.76%
C[C@@H]1CC[C@]2(C(=O)O)CC[C@]3(C)C(=CC[C@@H]4[C@@]5(C)C[C@@H](OC(=O)c6ccc(Cl)cc6)[C@H](OC(=O)c6ccc(Cl)cc6)[C@@](C)(COC(=O)c6ccc(Cl)cc6)[C@@H]5CC[C@]43C)[C@@H]2[C@]1(C)O,IC50,Acetylcholinesterase [1],5.91 µM
same,Activity,SH-SY5Y [2],>57.76%
C[C@@H]1CC[C@]2(C(=O)O)CC[C@]3(C)C(=CC[C@@H]4[C@@]5(C)C(C=O)=C[C@@](C)(COC(=O)c6ccc(Cl)cc6)[C@@H]5CC[C@]43C)[C@@H]2[C@]1(C)OC(=O)c1ccc(Cl)cc1,IC50,Acetylcholinesterase [1],> 100 µM
same,Activity,SH-SY5Y [2],>57.76%
C[C@@H]1CC[C@]2(C(=O)NCc3cccc(F)c3)CC[C@]3(C)C(=CC[C@@H]4[C@@]5(C)C[C@@H](O)[C@H](O)[C@@](C)(CO)[C@@H]5CC[C@]43C)[C@@H]2[C@]1(C)O,IC50,Acetylcholinesterase [1],> 100 µM
same,Activity,SH-SY5Y [2],<57.76%
C[C@@H]1CC[C@]2(C(=O)O)CC[C@]3(C)C(=CC[C@@H]4[C@@]5(C)C(C=O)=C[C@@](C)(COC(=O)CCc6ccccc6)[C@@H]5CC[C@]43C)[C@@H]2[C@]1(C)O,IC50,Acetylcholinesterase [1],46.2 µM
same,Activity,SH-SY5Y [2],>57.76%
C[C@@H]1CC[C@]2(C(=O)NCc3cccc(Cl)c3)CC[C@]3(C)C(=CC[C@@H]4[C@@]5(C)C[C@@H](O)[C@H](O)[C@@](C)(CO)[C@@H]5CC[C@]43C)[C@@H]2[C@]1(C)O,IC50,Acetylcholinesterase [1],63 µM
same,Activity,SH-SY5Y [2],>57.76%
C[C@@H]1CC[C@]2(C(=O)NCc3ccccc3)CC[C@]3(C)C(=CC[C@@H]4[C@@]5(C)C[C@@H](O)[C@H](O)[C@@](C)(CO)[C@@H]5CC[C@]43C)[C@@H]2[C@]1(C)O,IC50,Acetylcholinesterase [1],65.1 µM
same,Activity,SH-SY5Y [2],>57.76%
same,viability at 25 µM,SH-SY5Y [3],72.5%
